# Data as given in US8632825B2, “Anti-tumoural effects of cannabinoid combinations” (GW Pharma Limited, priority 2008, dated 2014).
# Where a SMILES comes first, the peptide text is derived from it. The star is where a group is joined. Cbz = O=C(OCc1ccccc1)*; CH2F = FC*
# What was measured:
# [1] = tested on: Human U87 MG astrocytoma cells xenografted to nude mice; test: Tumour volume of U87 MG xenografts in nude mice; assay type: in vivo; conditions: following 15 days of treatment, 15 mg/kg per day peritumourally
# Method: Human U87 MG astrocytoma cells were xenografted to nude mice and the test compounds were injected peritumourally at a concentration of 15 mg/kg per day.
# [2] = tested on: human U87 MG astrocytoma cells; test: Cell viability of human U87 MG astrocytoma cells in culture; assay type: cell-based; conditions: U-87 MG, pure cannabinoids
# Method: Tetrahydrocannabinol (THC) and cannabidiol (CBD) in the form of cannabis plant extracts were dissolved in ethanol to a concentration of 100 mM this was stored at −20° C. until required.
# Before use the cannabis plant extracts were further diluted to the desired concentration, ensuring that the concentration of ethanol was below 0.001%.
# U87 human glioma cells were used throughout this experiment. The cells were maintained at 37° C. in a humidified atmosphere with 5% CO2 and 95% air.
# Cells were cultured in a 75 cm^2 culture flask in Dulbecco's Modified Eagle Medium (DMEM), which had been supplemented with 4 mM L-glutamine, 100 units/ml penicillin, […], 1% sodium pyruvate, 1% non-essential amino acids and 10% heat-inactivated fetal bovine serum.
# The viability of the human U87 MG astrocytoma cells were examined at various cannabinoid concentrations. The THC and CBD extracts were compared against pure THC and CBD.
# The methods used were as described in Example 1 above.
# U87MG cells = test: Induced cell death with ATG1 silencing or pan-caspase inhibition; conditions: pan-caspase inhibitor; FIG. 3c
SMILES,Tumour volume relative to zero time [1],IC50 [2],induced cell death (U87MG cells)
"CCCCCc1cc(O)c2c(c1)OC(C)(C)[C@@H]1CCC(C)=C[C@@H]21 [THC, tetrahydrocannabinol]",5.1 ± 0.4,0.37 µM,
"C=C(C)[C@@H]1CCC(C)=C[C@H]1c1c(O)cc(CCCCC)cc1O [CBD, cannabidiol]",,0.47 µM,
CC(NC(=O)C(NC(=O)OCc1ccccc1)C(C)C)C(=O)NC(CC(=O)O)C(=O)CF (stereo not drawn) [Z-VAD] (Cbz-Val-Ala-Asp-CH2F; configuration not given here),,,prevent induced cell death
